From patent US11541099B2, “Flounder surimi having antioxidant and antihypertensive effects and method of preparing the same” (Jeju National University Industry-Academic Cooperation …, priority 2017, dated 2023) come the findings set out here.

Assay [1] in a line: Alkyl radical scavenging activity by ESR. As to conditions: peptides isolated from Fraction 2. The procedure:
In order to identify the radical scavenging ability using ESR (electron spin resonance spectrometer, JES-FA ESR, JEOL, Japan), ESR equipment owned by the Center for University-Wide Research Facilities, Jeju University was used and was in accordance with a modified version of the method by Hiramoto (1993). 20 μL of a sample was mixed with 20 μL of distilled water, 20 μL of 40 mM AAPH and 20 μL of 40 mM POBN were added to the resulting mixture, the reaction was proceeded at 37° C. for 30 minutes and the reaction solution was transferred to a capillary tube. The conditions used for analysis were as follows: central field: 3475 G, modulation width: 0.2 mT, 22 amplitude: 500 mT, scan width: 10 mT, set microwave power: 8 mW.

In assay [2] the target is T1, angiotensin I converting enzyme (ACE) (Oryctolagus cuniculus, UniProt P12822).
T1 construct: The crude enzyme solution used herein was the supernatant obtained by centrifuging; tissue Sigma-Aldrich Co; host or cells: rabbit lung (acetone powder, crude extract supernatant)
T1 sequence (P12822 34-1310): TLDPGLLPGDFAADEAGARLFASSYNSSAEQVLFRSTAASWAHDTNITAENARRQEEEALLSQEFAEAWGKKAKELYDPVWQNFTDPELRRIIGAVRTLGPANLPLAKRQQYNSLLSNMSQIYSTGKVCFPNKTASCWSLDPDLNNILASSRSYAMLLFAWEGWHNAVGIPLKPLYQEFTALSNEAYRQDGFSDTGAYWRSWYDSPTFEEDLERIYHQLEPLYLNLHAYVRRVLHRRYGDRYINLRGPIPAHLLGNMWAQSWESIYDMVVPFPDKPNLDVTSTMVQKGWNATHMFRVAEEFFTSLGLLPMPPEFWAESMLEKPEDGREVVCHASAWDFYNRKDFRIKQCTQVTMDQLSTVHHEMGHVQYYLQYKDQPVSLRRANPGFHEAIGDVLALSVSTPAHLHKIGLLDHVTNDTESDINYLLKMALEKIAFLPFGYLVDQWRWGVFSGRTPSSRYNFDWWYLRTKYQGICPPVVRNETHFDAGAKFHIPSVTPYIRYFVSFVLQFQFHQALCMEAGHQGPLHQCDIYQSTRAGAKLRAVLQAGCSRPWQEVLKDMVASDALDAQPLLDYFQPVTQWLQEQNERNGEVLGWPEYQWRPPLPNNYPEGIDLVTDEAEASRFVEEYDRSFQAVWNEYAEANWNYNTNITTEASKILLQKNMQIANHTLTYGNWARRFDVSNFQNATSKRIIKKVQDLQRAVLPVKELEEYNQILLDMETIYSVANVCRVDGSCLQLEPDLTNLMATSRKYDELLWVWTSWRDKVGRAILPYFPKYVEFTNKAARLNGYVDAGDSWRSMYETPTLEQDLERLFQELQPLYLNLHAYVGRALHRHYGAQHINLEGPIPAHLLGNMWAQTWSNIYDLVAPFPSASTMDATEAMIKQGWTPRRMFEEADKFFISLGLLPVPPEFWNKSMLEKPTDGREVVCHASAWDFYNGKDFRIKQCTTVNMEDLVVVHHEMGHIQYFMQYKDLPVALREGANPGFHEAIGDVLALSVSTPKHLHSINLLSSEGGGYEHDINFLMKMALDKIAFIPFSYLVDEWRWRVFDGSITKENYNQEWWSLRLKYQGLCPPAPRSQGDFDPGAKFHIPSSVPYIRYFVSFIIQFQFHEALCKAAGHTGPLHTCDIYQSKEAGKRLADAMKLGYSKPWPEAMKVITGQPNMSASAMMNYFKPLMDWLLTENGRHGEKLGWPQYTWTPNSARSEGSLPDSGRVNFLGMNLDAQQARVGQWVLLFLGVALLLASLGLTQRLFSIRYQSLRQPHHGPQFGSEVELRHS
As to the kind of experiment: ACE inhibition activity (modified Cushman and Cheung's method). In kind it is biochemical, rabbit. As to conditions: read-out: concentration inhibiting 50% of ACE (IC50) (converted). The procedure:
ACE inhibition activity was measured by a modified version of Cushman and Cheung's method. The crude enzyme solution used herein was the supernatant obtained by centrifuging (4° C., 4,000 rpm, 40 min) after extracting a rabbit lung acetone powder (Sigma-Aldrich Co.) at a concentration of 0.2 g/10 mL (w/v) and at 4° C. for 24 hours. The substrate was prepared by dissolving hippurylhistidyl-leucine ([…], Sigma-Aldrich Co.) at a concentration of 5 mg/mL (w/v) in a 0.1 M sodium borate buffer (pH 8.3) containing 0.3 M NaCl.
ACE inhibition activity was determined as follows. 50 μL of an ACE enzyme solution was added to 50 μL of a sample extract, reaction was proceeded at 37° C. for 5 minutes, 50 μL of a substrate was added thereto and the reaction was proceeded at 37° C. for 1 hour. Then, 150 μL of 1N HCl was added to stop the reaction, 750 μL of ethyl acetate was added thereto, and the mixture was stirred for 1 minute and centrifuged (3,500 rpm, 10 min) to obtain 500 μL of the supernatant. The supernatant was completely dried at 105° C. for 4 hours, 2 mL of ethyl acetate was added thereto, and the absorbance was measured at 228 nm. A control group was obtained by adding 50 μL of distilled water, instead of the sample extract.

≈ marks a conversion by molar mass, not a printed value. Residues, ends and D or L forms follow the SMILES beside them. No end group written: not given here.

Regarding VASVI [VASVI, Val-Ala-Ser-Val-Ile], the “IC50 value Alkyl radical scavenging activity” value in assay [1] came to 77 µg/mL. Also, in assay [2], the IC50 was 117 µM.

As for `NCCCC[C@H](NC(=O)[C@H](Cc1ccc(O)cc1)NC(=O)[C@@H](N)Cc1c[nH]c2ccccc12)C(=O)O` [WYK, Trp-Tyr-Lys] (H-Trp-Tyr-Lys-OH; N-terminus and C-terminus assumed), the “IC50 value Alkyl radical scavenging activity” value in assay [1] was 40 µg/mL (≈ 80.7 µM). In addition, the IC50 in assay [2] is 32.3 µM.

`CC[C@H](C)[C@H](N)C(=O)N[C@H](C(=O)N[C@@H](CC(=O)O)C(=O)N[C@@H](CCCNC(=N)N)C(=O)O)C(C)C` [IVDR, Ile-Val-Asp-Arg] (H-IVDR-OH; N-terminus and C-terminus assumed): the “IC50 value Alkyl radical scavenging activity” value in assay [1] was 68 µg/mL (≈ 136 µM). Also, the IC50 in assay [2] is 63.8 µM.
